Reference: patent publication US20220339143A1, “TAK-925 FOR USE IN TREATING NARCOLEPSY” (Takeda Pharmaceutical Company Limited, priority 2019, published 2022)
Read-outs that look alike come from different tables or passages of the source.

Test: Multiple-dose PK of intravenous Compound A in patients with NT1 (Cohorts B1, B2), plasma
Type: in vivo, human
Settings: for clearance: read-out: CL, Mean (converted)
Description: The purpose of the study was to evaluate the safety, tolerability, pharmacokinetics and pharmacodynamics of Compound A after multiple IV administration in patients with NT1. NT1 patients were evaluated in Cohort B1 and B2 (Table 19). Compound A or placebo were administered via IV infusion over 9 hours once daily for 7 days. A total of 13 patients with NT1 were treated with Compound A or placebo (4, 4, and 5 subjects in the placebo, Compound A 11 mg, and Compound A 44 mg groups, respectively). In this part, potential efficacy of Compound A was evaluated with MWT, ESS, KSS, night-time PSG (NPSG), cataplexy frequency assessment, and PGI-C as an exploratory PD assessment.
Blood samples used for PK analysis of Compound A was collected according to Table 20. See also FIG. 12 for whole schedules of study procedures.

[1] = human, plasma, intravenous, 11 mg, Day 7

Compound: COC(=O)N1CCC[C@H](NS(C)(=O)=O)[C@@H]1CO[C@H]1CC[C@@H](c2ccccc2)CC1 [Compound A, methyl (2R,3S)-3-((methylsulfonyl)amino)-2-(((cis-4-phenylcyclohexyl)oxy)methyl)piperidine-1-carboxylate]
- AUCtau D, Mean (11 mg, Day 1): 15.00 ng·h/mL/mg
- Cmax D Mean (11 mg, Day 1): 1.660 ng/mL/mg
- Vax, Mean (11 mg, Day 1): 129.6 L
- AUCtau D, Mean (11 mg, Day 7): 16.70 ng·h/mL/mg
- Cmax D Mean (11 mg, Day 7): 1.868 ng/mL/mg
- Cmin, Mean (11 mg, Day 7): 0.3258 ng/mL
- PTR, Mean (11 mg, Day 7): 57.07
- Vx, Mean (11 mg, Day 7): 313.0 L
- t½z Mean (11 mg, Day 7): 3.595 h
- Cmin, Geo Mean (11 mg, Day 7 (N of Geo Mean 3)): 0.4061 ng/mL
- AUCtau D, Mean (44 mg, Day 1): 15.70 ng·h/mL/mg
- Vax, Mean (44 mg, Day 1): 135.0 L
- Vz, Mean (44 mg, Day 1): 316.2 L
- AUCtau D, Mean (44 mg, Day 7): 16.56 ng·h/mL/mg
- Cmax D Mean (44 mg, Day 7): 1.858 ng/mL/mg
- Cmin, Mean (44 mg, Day 7): 1.327 ng/mL
- PTR, Mean (44 mg, Day 7): 70.28
- Vx, Mean (44 mg, Day 7): 375.2 L
- t½z Mean (44 mg, Day 7): 4.222 h
- drug accumulation (QD dosing, 9-hour IV infusion daily for 7 days): no drug accumulation was observed
- dose proportionality of mean plasma systemic exposures (daily 9-hour IV infusions, 11 and 44 mg): generally increased in a dose proportional manner
- AUC(0-inf) (human, plasma, intravenous, 11 mg, Day 1, read-out: AUCinf, Geo Mean): 166 ng·h/mL
- AUC(0-inf) (human, plasma, intravenous, 11 mg, Day 1, read-out: AUCinf, Mean): 167 ng·h/mL
- AUC(0-t) (human, plasma, intravenous, 11 mg, Day 1, read-out: AUClast, Geo Mean): 164 ng·h/mL
- AUC (human, plasma, intravenous, 11 mg, Day 1, read-out: AUCtau, Geo Mean): 164 ng·h/mL
- AUC (human, plasma, intravenous, 11 mg, Day 1, read-out: AUCtau, Mean): 165 ng·h/mL
- Cmax (human, plasma, intravenous, 11 mg, Day 1, read-out: Cmax, Geo Mean): 18.2 ng/mL
- Cmax (human, plasma, intravenous, 11 mg, Day 1, read-out: Cmax, Mean): 18.3 ng/mL
- AUC(0-t) (human, plasma, intravenous, 11 mg, Day 7, read-out: AUClast, Geo Mean): 182 ng·h/mL
- AUC (human, plasma, intravenous, 11 mg, Day 7, read-out: AUCtau, Geo Mean): 183 ng·h/mL
- AUC (human, plasma, intravenous, 11 mg, Day 7, read-out: AUCtau, Mean): 184 ng·h/mL
- Cmax at 7 days (human, plasma, intravenous, 11 mg, Day 7, read-out: Cmax, Geo Mean): 20.5 ng/mL
- AUC(0-inf) (human, plasma, intravenous, 44 mg, Day 1, read-out: AUCinf, Mean): 697 ng·h/mL
- AUC(0-t) (human, plasma, intravenous, 44 mg, Day 1, read-out: AUClast, Geo Mean): 682 ng·h/mL
- AUC (human, plasma, intravenous, 44 mg, Day 7, read-out: AUCtau, Geo Mean): 723 ng·h/mL
- AUC (human, plasma, intravenous, 44 mg, Day 7, read-out: AUCtau, Mean): 729 ng·h/mL
- Cmax at 7 days (human, plasma, intravenous, 44 mg, Day 7, read-out: Cmax, Geo Mean): 81.2 ng/mL
- Vd (human, plasma, intravenous, 11 mg, Day 1, read-out: Vz, Mean): 310 L
- Tmax at 7 days [1]: 5.17 h
- clearance [1]: 1010 mL/min
- clearance (human, plasma, intravenous, 44 mg, Day 1): 1080 mL/min
- Tmax (human, plasma, intravenous, 44 mg, Day 7): 4.93 h
- AUC(0-t) (human, plasma, iv, 11 mg, Day 1, 9 h IV infusion QD, NT1, read-out: AUClast, Mean): 164 ng·h/mL
